# Source: patent US12433909B2, “Formulations of cyclic macromolecule-based nanoparticles encapsulating small molecules” (Board of Regents of The University of Texas System, priority 2019, dated 2025)
# Assays:
# [1] = experimental drug loading in CDN nanoparticles, quantified by absorbance; type: physicochemical; conditions: for drug loading in CDNs 1-3: theoretical loading of 10% (w/w)
# Protocol: Panobinostat-loaded nanoparticles were formulated by doping a given concentration of the drug with CDN in 2.5 vol % DMSO-aqueous medium. Panobinostat was added at different theoretical loadings, and the amount of panobinostat incorporated into the network after thorough washing was quantified by absorbance.
# An aqueous dispersion (2.0 mL) of blank CDN nanoparticles (10 mg/mL) was doped with DMSO (50 uL) solution of panobinostat (40 mg/mL; 10% theoretical loading). The aqueous dispersion was left to agitate for 18 h, and subjected to concentration via ultrafiltration through Amicon Ultra-15 centrifugal filters (3 kDa MWCO, […]) for 4, 20 mins spins at 5000 RCF. Aliquots were frozen and lyophilized for later studies.
# Drug loading was quantified by absorbance ([…] for quisinostat, panobinostat and dacinostat; 285 nm for givinostat; 365 nm for camptothecin; 550 nm for Nile Red) on a Tecan plate reader. Lyophilized nanoparticles were dissolved at 5 mg/ml in DMSO. Samples were plated in triplicate ([…], nanoparticles and 10 μL DMSO per well) in a clear, flat bottom 96-well assay plate. A control curve was constructed in technical triplicate by adding 40 μL blank nanoparticles per well and spiking with 10 μL of known drug concentration in DMSO. Experimental drug loading was calculated as mass of drug/mass of nanoparticles (w/w %). 40 μL of bortezomib loaded nanoparticles (5 mg/ml aqueous solution) were extracted with 100 μL of ethylacetate. The ethylacetate layer was collected and dried under nitrogen. The contents were dissolved in 40 μL of DMSO and plated in triplicate. A control curve was constructed in technical triplicate by spiking with 10 μL of known drug concentration in DMSO. Absorbance was measured at 285 nm. Experimental drug loading was calculated as mass of drug/mass of nanoparticles (w/w %).
# [2] = system: GL261 cells; experiment: in vitro GL261 cell viability assay (CellTiter-Glo); type: cell-based, murine; conditions: 72 hours of incubation, CDN-4 21% drug loaded
# Protocol: For IC50 experiments, GL261 cells were seeded at […] into 96 well plates containing Dulbecco's Modified Eagle Medium (DMEM) and 10% Fetal Bovine Serum (FBS). Cells were given 4 hours to adhere prior to drug treatments. Free panobinostat, drug-loaded and blank CDN-4 (21% drug loaded) were dispersed in 2.5% DMSO in cell culture media at 10 mg/mL drug concentration. Equivalent doses were added to the 96 well plates at 16 serial dilutions with concentrations from 0-70 μM and incubated at 37° C. with 5% CO2 for 72 hours. Cell viability was determined with an IC50 value obtained from a CellTiter-Glo Luminescence assay and calculated using GraphPad Prism (San Diego, CA USA). For uptake experiments, GL261 cells were seeded at 90,000 cells/1 mL into 48 well plates containing DMEM and 10% FBS. Panobinostat loaded CDN-4 nanoparticles (250 ug) were incubated with cells for 48 hours, after which cells were thoroughly washed, fixed, and counterstained with DAPI. Images were collected on an upright Nilkon Ti2 microscope.
# [3] = mouse, in vivo
# Protocol: All animal procedures were approved by the Institutional Animal Care and Use Committee at University of Texas Health Science at Houston in accordance with all relevant guidelines. Healthy, female NSG mice were used for in vivo experiments. CDN nanoparticles were administered by direct infusion into the cisternal magna. Briefly, mice were anesthetized with isoflurane (2%) and mounted on a stereotaxic frame (Kopf Instruments, Tujunga, CA, USA). With the head tilted forward, an incision was made across the back of the neck and muscles were gentle retracted to expose the atlanto-occipal membrane. A Hamilton syringe (29 gauge needle, 30° bevel tip) in a 2 uL volume delivered over 1 minute at an injection dept of 1 mm. The needle was left in place for an additional 2 minutes to prevent backflow. All animals received a subcutaneous injection of buprenorphine (1 mg/kg) prior to surgery, and other analgesics to control pain. For MTD studies, panobinostat loaded CDN-4 nanoparticles were administered at increasing concentrations. […] For pharmacokinetic studies, mice received CDN-4 nanoparticles at a dose of 560 ug panobinostat and euthanized at specified time points (1, 4, 8, 24, and 48 hours after nanoparticle administration, n=5 mice per time point). One mouse in the 24 hour time point died during surgery, leaving n=4 for that experimental group. […]
# [4] = background statement; cited from earlier work
smiles,measurement,setting,value
CCN(CC)Cc1ccc2cc(COC(=O)Nc3ccc(C(=O)NO)cc3)ccc2c1 [givinostat],drug loading in CDNs 1-3,[1],loaded particularly well
CC(C)C[C@H](NC(=O)[C@H](Cc1ccccc1)NC(=O)c1cnccn1)B(O)O [bortezomib],drug loading in CDNs 1-3,[1],loaded particularly well
O=C(/C=C/c1ccc(CN(CCO)CCc2c[nH]c3ccccc23)cc1)NO [dacinostat],drug loading in CDNs 1-3,[1],loaded particularly well
Cc1[nH]c2ccccc2c1CCNCc1ccc(/C=C/C(=O)NO)cc1 [non-CDN-formulated Pb],IC50,[2],230 nM
Cn1cc(CNCC2CCN(c3ncc(C(=O)NO)cn3)CC2)c2ccccc21 [quisinostat],drug loading in CDNs 1-3,[1],loaded particularly well
Nc1ccn([C@@H]2O[C@H](CO)[C@@H](O)[C@@H]2O)c(=O)n1 [cytarabine],experimental loading with all the CDNs,"[1]; control hydrophilic drug, data not shown",poor experimental loading
Cc1[nH]c2ccccc2c1CCNCc1ccc(/C=C/C(=O)NO)cc1 [panobinostat],IC50,"[2]; Mus musculus, GL261",170 nM
same,panobinostat in plasma,[3],undetectable
same,water solubility,[4],poorly water soluble
